Measured values: US10906873B2, “Substituted cyclic amides as herbicides” (FMC Corporation, priority 2015, dated 2021)

Legend:
Assay type in all cases: in vivo
[1] = system: pigweed (Amaranthus retroflexus); assay: Test A postemergence, pigweed; details: 0 to 100 scale
How it was run: (§1)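 Seeds sown in loam–sand blend received a directed soil spray preemergence; postemergence plants (2–10 cm, one- to two-leaf stage) were sprayed with test chemicals in non-phytotoxic solvent with surfactant. After about 10 d in greenhouse, injury was scored visually versus untreated controls, 0 (no effect) to 100 (complete control).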

[2] = system: pigweed (Amaranthus retroflexus); assay: Test A preemergence, pigweed; details: 0 to 100 scale
How it was run: as §1

[3] = system: morningglory (Ipomoea spp.); assay: Test A preemergence, morningglory; details: 1000 g ai/ha, 0 to 100 scale
From the text: (§2) Seeds of plant species selected from barnyardgrass (Echinochloa crus-galli), crabgrass (large crabgrass, Digitaria sanguinalis), kochia (Kochia scoparia), ragweed (common ragweed, Ambrosia elatior), morningglory (Ipomoea spp.), velvetleaf (Abutilon theophrasti), ryegrass, It. (Italian ryegrass, Lolium multiflorum), foxtail, giant (giant foxtail, Setaria faberii), wheat (Triticum aestivum), corn (Zea mays), and pigweed (Amaranthus retroflexus), were planted into a blend of loam soil and sand and treated preemergence with a directed soil spray using test chemicals formulated in a non-phytotoxic solvent mixture which included a surfactant. At the same time, plants selected from these crop and weed species and also blackgrass (Alopecurus myosuroides), and galium (catchweed bedstraw, Galium aparine), were planted in pots containing the same blend of loam soil and sand and treated with postemergence applications of test chemicals formulated in the same manner. Plants ranged in height from 2 to 10 cm and were in the one- to two-leaf stage for the postemergence treatment. Treated plants and untreated controls were maintained in a greenhouse for approximately 10 d, after which time all treated plants were compared to untreated controls and visually evaluated for injury. Plant response ratings, summarized in Table A, are based on a 0 to 100 scale where 0 is no effect and 100 is complete control. A dash (-) response means no test result.

[4] = system: crabgrass (large crabgrass, Digitaria sanguinalis); assay: Test A preemergence, crabgrass; details: 1000 g ai/ha, 0 to 100 scale
From the text: as §2

[5] = system: foxtail, giant (giant foxtail, Setaria faberii); assay: Test A preemergence, foxtail, giant; details: 0 to 100 scale
How it was run: as §1

[6] = system: barnyardgrass (Echinochloa crus-galli); assay: Test A postemergence, barnyardgrass
How it was run: as §1

corn (Zea mays) [7] = assay: Test A preemergence, corn; details: 1000 g ai/ha, 0 to 100 scale
From the text: as §2

corn (Zea mays) [8] = assay: Test A postemergence, corn; details: 0 to 100 scale
How it was run: as §1

[9] = system: wheat (Triticum aestivum); assay: Test A postemergence, wheat; details: 0 to 100 scale
How it was run: as §1

[10] = system: velvetleaf (Abutilon theophrasti); assay: Test A postemergence, velvetleaf; details: 1000 g ai/ha, 0 to 100 scale
From the text: as §2

[11] = system: barnyardgrass (Echinochloa crus-galli); assay: Test A preemergence, barnyardgrass; details: 0 to 100 scale
How it was run: as §1

[12] = system: velvetleaf (Abutilon theophrasti); assay: Test A preemergence, velvetleaf; details: 1000 g ai/ha, 0 to 100 scale
From the text: as §2

[13] = system: morningglory (Ipomoea spp.); assay: Test A postemergence, morningglory; details: 1000 g ai/ha, 0 to 100 scale
From the text: as §2

[14] = system: foxtail, giant (giant foxtail, Setaria faberii); assay: Test A postemergence, foxtail, giant; details: 0 to 100 scale
How it was run: as §1

[15] = system: crabgrass (large crabgrass, Digitaria sanguinalis); assay: Test A postemergence, crabgrass; details: 1000 g ai/ha, 0 to 100 scale
From the text: as §2

[16] = system: wheat (Triticum aestivum); assay: Test A preemergence, wheat; details: 1000 g ai/ha, 0 to 100 scale
From the text: as §2

[17] = system: ryegrass, It. (Italian ryegrass, Lolium multiflorum); assay: Test A preemergence, ryegrass, It.; details: 0 to 100 scale
How it was run: as §1

[18] = system: ryegrass, It. (Italian ryegrass, Lolium multiflorum); assay: Test A postemergence, ryegrass, It.; details: 0 to 100 scale
How it was run: as §1

[19] = system: ragweed (common ragweed, Ambrosia elatior); assay: Test A postemergence, ragweed; details: 0 to 100 scale
How it was run: as §1

[20] = system: galium (catchweed bedstraw, Galium aparine); assay: Test A postemergence, galium; details: 0 to 100 scale
How it was run: as §1

kochia (Kochia scoparia) [21] = assay: Test A postemergence, kochia; details: 0 to 100 scale
How it was run: as §1

kochia (Kochia scoparia) [22] = assay: Test A preemergence, kochia; details: 0 to 100 scale
How it was run: as §1

[23] = system: blackgrass (Alopecurus myosuroides); assay: Test A postemergence, blackgrass; details: 0 to 100 scale
How it was run: as §1

[24] = system: barnyardgrass (Echinochloa crus-galli); assay: Test B flooded paddy test, barnyardgrass; details: Flood, 500 g ai/ha; scale of 0 to 100 where 0 is no effect and 100 is complete control; 13 to 15 d
How it was run: (§3)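 Plants at the 2-leaf stage were flooded to 3 cm above soil, and test compounds were applied directly into the paddy water, which was held at that depth throughout. After 13 to 15 d in a greenhouse, injury was rated visually against untreated controls on a 0–100 scale (0 no effect, 100 complete control).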

[25] = system: ducksalad (Heteranthera limosa); assay: Test B flooded paddy test, ducksalad; details: Flood, 500 g ai/ha; scale of 0 to 100 where 0 is no effect and 100 is complete control; 13 to 15 d
How it was run: as §3

rice (Oryza sativa) = assay: Test B flooded paddy test, rice; details: Flood, 500 g ai/ha; scale of 0 to 100 where 0 is no effect and 100 is complete control; 13 to 15 d
How it was run: as §3

[26] = system: ragweed (common ragweed, Ambrosia elatior); assay: Test A preemergence, ragweed; details: 0 to 100 scale
How it was run: as §1

[27] = system: sedge, umbrella (small-flower umbrella sedge, Cyperus difformis); assay: Test B flooded paddy test, sedge, umbrella; details: Flood, 500 g ai/ha; scale of 0 to 100 where 0 is no effect and 100 is complete control; 13 to 15 d
How it was run: as §3

O=C1NCC(Cc2ccc(F)cc2)C1C(=O)Nc1ccccc1F (stereo not shown) [Compound 14]
Plant response rating, Pigweed ([1]; 1000 g ai/ha): 0 | Plant response rating, Pigweed ([2]; 1000 g ai/ha): 0 | Plant response rating, Morningglory [3]: 0 | Plant response rating, Crabgrass [4]: 80 | Plant response rating, Foxtail, Giant ([5]; 1000 g ai/ha): 30 | Plant response rating, Barnyardgrass ([6]; 1000 g ai/ha, 0 to 100 scale (0 no effect, 100 complete control)): 0 | Plant response rating, Corn (corn (Zea mays) [7]): 0 | Plant response rating, Corn (corn (Zea mays) [8]; 1000 g ai/ha): 0 | Plant response rating, Wheat ([9]; 1000 g ai/ha): 0 | Plant response rating, Velvetleaf [10]: 0 | Plant response rating, Barnyardgrass ([11]; 1000 g ai/ha): 20 | Plant response rating, Velvetleaf [12]: 0 | Plant response rating, Morningglory [13]: 0 | Plant response rating, Foxtail, Giant ([14]; 1000 g ai/ha): 0 | Plant response rating, Crabgrass [15]: 20 | Plant response rating, Wheat [16]: 0

O=C1NCC(Cc2cccc(F)c2F)C1C(=O)Nc1ccccc1C(F)(F)F (stereo not shown) [Compound 10]
Plant response rating, Pigweed ([1]; 125 g ai/ha): 0 | Plant response rating, Pigweed ([1]; 500 g ai/ha): 0 | Plant response rating, Pigweed ([2]; 125 g ai/ha): 0 | Plant response rating, Pigweed ([2]; 500 g ai/ha): 0 | Plant response rating, Ryegrass, It. ([17]; 125 g ai/ha): 0 | Plant response rating, Ryegrass, It. ([17]; 500 g ai/ha): 0 | Plant response rating, Ryegrass, It. ([18]; 125 g ai/ha): 0 | Plant response rating, Ryegrass, It. ([18]; 500 g ai/ha): 0 | Plant response rating, Ragweed ([19]; 125 g ai/ha): 0 | Plant response rating, Ragweed ([19]; 500 g ai/ha): 0 | Plant response rating, Galium ([20]; 125 g ai/ha): 0 | Plant response rating, Galium ([20]; 500 g ai/ha): 0 | Plant response rating, Kochia (kochia (Kochia scoparia) [21]; 125 g ai/ha): 0 | Plant response rating, Kochia (kochia (Kochia scoparia) [21]; 500 g ai/ha): 0 | Plant response rating, Kochia (kochia (Kochia scoparia) [22]; 125 g ai/ha): 0 | Plant response rating, Kochia (kochia (Kochia scoparia) [22]; 500 g ai/ha): 0 | Plant response rating, Blackgrass ([23]; 125 g ai/ha): 0 | Plant response rating, Blackgrass ([23]; 500 g ai/ha): 0 | Plant response rating, Barnyardgrass [24]: 0 | Plant response rating, Foxtail, Giant ([5]; 125 g ai/ha): 0 | Plant response rating, Foxtail, Giant ([5]; 500 g ai/ha): 0 | Plant response rating, Barnyardgrass ([6]; 125 g ai/ha, 0 to 100 scale): 0 | Plant response rating, Barnyardgrass ([6]; 500 g ai/ha, 0 to 100 scale): 0 | Plant response rating, Corn (corn (Zea mays) [8]; 125 g ai/ha): 0 | Plant response rating, Corn (corn (Zea mays) [8]; 500 g ai/ha): 0 | Plant response rating, Wheat ([9]; 125 g ai/ha): 0 | Plant response rating, Wheat ([9]; 500 g ai/ha): 0 | Plant response rating, Barnyardgrass ([11]; 125 g ai/ha): 0 | Plant response rating, Barnyardgrass ([11]; 500 g ai/ha): 0 | Plant response rating, Ducksalad [25]: 0 | Plant response rating, Rice (rice (Oryza sativa)): 0 | Plant response rating, Ragweed ([26]; 125 g ai/ha): 0 | Plant response rating, Ragweed ([26]; 500 g ai/ha): 0 | Plant response rating, Foxtail, Giant ([14]; 125 g ai/ha): 0 | Plant response rating, Foxtail, Giant ([14]; 500 g ai/ha): 0 | Plant response rating, Sedge, Umbrella [27]: 0
